Test results reported in ChEMBL document CHEMBL3639104, “Ring-fused compound” (2015).

Target: T1, Solute carrier family 22 member 12 (Homo sapiens, UniProt Q96S37)
T1 sequence (Q96S37 whole entry): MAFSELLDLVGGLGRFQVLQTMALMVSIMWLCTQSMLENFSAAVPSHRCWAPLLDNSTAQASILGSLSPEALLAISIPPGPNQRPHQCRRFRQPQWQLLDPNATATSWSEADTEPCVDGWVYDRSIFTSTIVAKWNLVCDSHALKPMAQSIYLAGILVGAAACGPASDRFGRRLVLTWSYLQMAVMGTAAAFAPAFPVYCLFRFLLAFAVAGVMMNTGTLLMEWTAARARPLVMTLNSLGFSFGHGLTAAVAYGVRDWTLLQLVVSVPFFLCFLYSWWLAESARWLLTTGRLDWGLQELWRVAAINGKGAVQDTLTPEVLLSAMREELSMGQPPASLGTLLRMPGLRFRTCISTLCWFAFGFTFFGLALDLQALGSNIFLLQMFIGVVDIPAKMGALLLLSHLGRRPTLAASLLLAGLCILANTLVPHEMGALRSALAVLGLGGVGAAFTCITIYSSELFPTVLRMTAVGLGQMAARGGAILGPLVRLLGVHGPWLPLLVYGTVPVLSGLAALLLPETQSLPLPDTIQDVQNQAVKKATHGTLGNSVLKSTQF
Experiment: Inhibition Assay: It was introduced human URAT1 full-length cDNA into an expression vector pcDNA5 / FRT / V5-His TOPO (registered trademark) (Invitrogen). The resulting expression plasmids, the liposome method using Lipofectamine LTX (Invitrogen), Chinese hamster ovary cells (hereinafter, referred to as CHO cells) was introduced into, by culturing in a selective medium containing hygromycin and human URAT1 stable The expression cell line we were prepared.Human URAT1 expression CHO cells, 10% fetal calf serum, D-MEM / F-12 containing the hygromycin (1: 1) using a mixed medium, 37 C, were cultured in the presence of 5% CO2. Cells were seeded in 96-well plates (Corning Incorporated) in 0.8x10E+5 cells / well, were subjected to the following uric acid transport inhibition test after 24 hours.After removal of the medium by aspiration, sodium gluconate of cells 125mM, potassium gluconate of 4.8mM, potassium dihydrogen phosphate of 1.2mM, magnesium sulfate of 1.2mM, calcium gluconate of 1.3mM, 5. washed once.
Type: cell-based

| IC50 | Structure (SMILES) |
| --- | --- |
| 0.075 µM | Cc1nn(Cc2c(Cl)cccc2Cl)c2cc(C(C)C(=O)O)ccc12 (configuration not stated) |
| 0.098 µM | Cc1nn(Cc2c(Cl)cccc2Cl)c2cc(C(C)(C)C(=O)O)ccc12 |
